Laboratory results from patent US20160279187A1, “CALPAIN INHIBITORS FOR IBD AND COLORECTAL CANCER TREATMENT” (UNIVERSITY OF HAWAII, priority 2013, published 2016).
Where a SMILES comes first, the peptide text is derived from it. The star is where a group is joined. Cbz = O=C(OCc1ccccc1)*; CH2F = FC*

How the values were obtained:
[1] = target: T1, μ-calpain (Homo sapiens, UniProt P07384); settings: off-target; cited from earlier work
T1 sequence (P07384 1-714): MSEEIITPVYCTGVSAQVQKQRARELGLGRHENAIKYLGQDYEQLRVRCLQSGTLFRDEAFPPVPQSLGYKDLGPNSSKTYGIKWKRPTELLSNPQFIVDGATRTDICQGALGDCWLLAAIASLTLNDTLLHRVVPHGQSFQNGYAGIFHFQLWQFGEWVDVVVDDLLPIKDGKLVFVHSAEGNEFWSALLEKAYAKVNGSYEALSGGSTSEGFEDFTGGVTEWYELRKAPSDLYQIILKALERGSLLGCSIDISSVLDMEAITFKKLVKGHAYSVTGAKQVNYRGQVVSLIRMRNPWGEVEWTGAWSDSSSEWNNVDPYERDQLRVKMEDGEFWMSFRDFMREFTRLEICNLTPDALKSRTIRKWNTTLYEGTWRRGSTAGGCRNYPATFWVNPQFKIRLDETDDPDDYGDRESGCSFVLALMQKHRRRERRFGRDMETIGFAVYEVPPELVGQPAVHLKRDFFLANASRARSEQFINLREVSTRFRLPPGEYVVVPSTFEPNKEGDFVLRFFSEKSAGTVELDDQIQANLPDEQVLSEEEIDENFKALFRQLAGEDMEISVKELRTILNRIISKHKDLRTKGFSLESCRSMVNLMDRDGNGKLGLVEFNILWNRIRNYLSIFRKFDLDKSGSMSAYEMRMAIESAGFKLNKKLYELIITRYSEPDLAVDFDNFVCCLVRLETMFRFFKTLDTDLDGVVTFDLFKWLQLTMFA

[2] = tested on: cytokine mRNAs in colon tissues; test: AOM/DSS model, colon cytokine mRNA by real-time PCR; format: in vivo, mice; settings: day 63, vs vehicle control
Procedure: Mice subjected to the AOM/DSS model were sacrificed on day 63 and colons removed and assessed by histology and cytokine mRNA analyses. […] To further assess inflammation, mouse colon tissues were harvested at the end of the chronic colitis model and mRNA levels for different cytokines measured by real-time PCR.
To determine if a similar mechanism may be contributing to the effect of the calpain-2 inhibition in the DSS model of colitis, macrophages were analyzed for NFκB activation and inflammatory cytokine secretion. Bone marrow derived macrophages were primed […] with TNFα (20 ng/ml) and activated with E. faecalis (1 μg/ml) for 1 h in the presence or absence of calpain-2 inhibitor (20 μg/ml). Supernatants were evaluated for a panel of cytokines including IFNγ, TNFα, IL-6, and MCP-1, IL-10, and IL-12. Real-time PCR was performed on total RNA extracted from colon tissues to access levels of cytokines. Media was collected from wells and cytokines assessed by CBA kit (BD Biosciences). For IκB blotting cells were lysed and SDS-PAGE was performed. Membranes were stained with anti-IκB (Cell Signalling) and anti-βactin (Santa Cruz). For NfκB blotting an NFκB Activation Kit (Five Photon) was used to isolate nuclear fractions. These fractions were transferred using SDS-PAGE. The membranes were stained with anti-NFκB (Santa Cruz) or anti-TATA (Abcam). Data are mean±SE (n=3) and represent results from three independent experiments. *p<0.05; one way ANOVA followed by Tukey post-test. […] Importantly, those cytokines most affected by the calpain-2 are regulated by NFκB.

[3] = tested on: CT-26 WT mouse colon cancer cells; test: proliferation assay (MTS), CT-26.WT; format: cell-based; settings: 20 μg/ml, vs DMSO
Procedure: Bone marrow derived macrophages (BMDM) were prepared as previously described by methods known to those skilled in the art. On day 5 of culture, 2×10^6 BMDM were seeded in 6-well plates and the following day were primed for 18 h with TNFα (20 ng/mL), followed by 1 h stimulation with E. faecalis (1 μg/mL; ATCC). Stimulation with E. faecalis was conducted in the presence of the zLLY-CH2F calpain-2 inhibitor (20 μg/mL) or DMSO as a control. Media was removed from treated BMDM, centrifuged at 300×g for 5 min and supernatent analyzed using the Cytometric Bead Array Mouse Inflammation Kit (BD Biosciences, San Jose, Calif.). Cytokine data were analyzed using Flowjo software (Ashland, Oreg.) and GraphPad Prism version 4.0 (GraphPad, La Jolla, Calif.). Cell pellets were lysed and analyzed for IκB and NFκB by Western blot as previously described (Miyazaki, T. et al. Journal of Atherosclerosis and Thrombosis 20, 228-237, 2013). […] Each day 4 wells were quantified using Celltiter MTS reagent (Promega) and the resulting signal was used to generate a proliferation curve. Calpain activity was measured using a Calpain activity assay kit (BioVision, Inc., Milpitas, Calif.) as previously described. Colons were harvested on day 4 and calpain activity measured. […]

## CC(C)C[C@H](NC(=O)OCc1ccccc1)C(=O)N[C@@H](CC(C)C)C(=O)N[C@@H](Cc1ccc(O)cc1)C(=O)CF [zLLY-CH2F, Z-LLY-CH2F] (Cbz-Leu-Leu-Tyr-CH2F)
[1]
  inhibition of μ-calpain: not known to inhibit
[2]
  IFNγ mRNA level in colon: not significantly different
  IL-6 mRNA level in colon: lowered
  MCP-1 mRNA level in colon: lowered
  TNFα mRNA level in colon: lowered
[3]
  proliferation: reduction
